Test results from PMC11375794, “Discovery of new Hsp90–Cdc37 protein–protein interaction inhibitors: in silico screening and optimization of anticancer activity” (RSC Advances, 2024).

What was measured:
[1] = test system: Ewing sarcoma cell line SK-N-MC; assay: MTS cell viability (antiproliferative) assay in SK-N-MC; assay type: cell-based; settings: Homo sapiens, SK-N-MC, 72 hours, mean ± SD
Procedure: (§1) Hormone-positive breast cancer cell line MCF-7 (ATCC-HTB-22; ATCC) was grown in Dulbecco's Modified Eagle's Medium (DMEM), while Ewing sarcoma cell line SK-N-MC (a kind gift from Beat Schäfer) and THP-1 (ATCC-TIB-202; ATCC) cells were grown in Roswell Park Memorial Institute (RPMI) 1640. The medium was supplemented with 10% heat-inactivated fetal bovine serum (Gibco, Thermo Fisher Scientific, Waltham, MA, USA), 100 U per mL penicillin, 100 μg per mL streptomycin, and 2 mM L-glutamine (all from Sigma-Aldrich, St. Louis, MO, USA). All cell lines were incubated at 37 °C in a 5% CO2 atmosphere.
(§2) The antiproliferative activity of the compounds was evaluated against MCF-7 (ATCC-HTB-22; ATCC), SK-N-MC (a kind gift from Beat Schäfer) and THP-1 (ATCC-TIB-202; ATCC) cancer cell lines using the MTS assay (Promega, Madison, WI, USA). Cells were seeded in 96-well plates at a density of 2 × 10^4 cells per mL in 100 μL of growth medium for THP-1 and were treated with compounds and controls directly, while 3 × 10^3 cells per mL for MCF-7 and SK-N-MC were seeded in 100 μL of growth medium and allowed to adhere overnight following the treatment. In all cases the cells were treated with respective newly prepared compounds, positive controls (17-DMAG for MCF-7 and SK-N-MC; PU-H71 for THP-1) and a vehicle control (0.5% DMSO). The incubation time after treatment was 72 hours, then CellTiter96® Aqueous One Solution Reagent (Promega, Madison, WI, USA) was added to each well. Following a 3 hours incubation, absorbance was measured at 492 nm using BioTek's Synergy™ 4 Hybrid Microplate Reader (Winooski, VT, USA). The measurements were performed in two biological repetitions and each time the experiment was performed in a triplicate. The IC50 values, representing the concentration of inhibitor required for half-maximal inhibition, are the average of three independent experiments and were calculated using GraphPad Prism 9.5.0 software (San Diego, CA, USA).

[2] = test system: MCF-7 breast cancer cell line; assay: MTS cell viability (antiproliferative) assay in MCF-7; assay type: cell-based; settings: Homo sapiens, MCF7
Procedure: as §1, §2

[3] = biological target: wild-type Hsp90; design: method as in PMID 31555737; settings: cited from earlier work
[4] = test system: leukemia cell line THP-1; assay: MTS cell viability (antiproliferative) assay in THP-1; assay type: cell-based; settings: Homo sapiens, THP-1, 72 hours, mean ± SD
Procedure: as §1, §2

[5] = biological target: Asp47Ala mutant of Hsp90; design: method as in PMID 31555737; settings: cited from earlier work
[6] = test system: Hsp90 client protein levels (Cdk4, Akt, c-Raf, ERα, IGF1R) and Hsp70, Hsp90 in MCF-7 cells; assay: Western blot of Hsp90 client proteins and heat shock proteins; assay type: cell-based; settings: MCF-7, 20 μM, 24 hours
Procedure: MCF-7 cells were treated with compounds 8c (20 μM and 50 μM), 13g (20 μM and 50 μM) and DDO-5936 (20 μM) or 0.5% DMSO as a negative control. The cells were incubated with the compounds or negative control for 24 hours. After incubation, the cells were rinsed with PBS (Gibco, Thermo Fisher Scientific, Waltham, MA, USA) and lysed using RIPA buffer containing 50 mM Tris–HCl pH 7.4, 150 mM NaCl, 1% NP-40, 0.5% sodium deoxycholate, and 1 mM EDTA. The RIPA buffer was further supplemented with Halt™ Protease Inhibitor Cocktail and Halt™ Phosphatase Inhibitor Cocktail (both from Thermo Fisher Scientific, Waltham, MA, USA) at a 1 : 100 dilution. The lysates were then frozen for at least 24 hours. Upon thawing, the lysates were sonicated and centrifuged at 15 000 rpm for 20 minutes at 4 °C. Only the supernatants were collected, and protein concentration was measured using the DC protein assay (Bio-Rad, Hercules, California, USA). Proteins (20 μg) were separated by SDS-PAGE on a 10% acrylamide/bisacrylamide gel, running at 80 V for 15 minutes followed by 130 V for 60 minutes. The separated proteins were then transferred onto a nitrocellulose membrane using the iBlot 2 Dry Blotting System (Thermo Fisher Scientific, Waltham, MA, USA). The membranes were blocked with 5% BSA for 1 hour at room temperature to prevent nonspecific binding. Primary antibodies were then added, and the membranes were incubated overnight at 4 °C. The primary antibodies (Cell Signaling, Danvers, MA, USA) used included anti-β-ActinMouse mAb (1 : 5000), anti-Hsp90 Rabbit mAb (1 : 1000), anti-Hsp70 Mouse mAb (1 : 1000), anti-IGF1R Rabbit (1 : 1000), anti-CDK4 Rabbit (1 : 1000), anti-ERα Mouse mAb (1 : 1000), anti-Akt Rabbit mAb (1 : 1000), and anti-c-Raf Rabbit mAb (1 : 1000). Secondary antibodies included anti-rabbit IgG, HRP-linked antibody (1 : 10 000), and anti-mouse IgG, HRP-linked antibody (1 : 10 000), which were incubated with the membranes for 1 hour at room temperature. Following washes, SuperSignal™ West Femto Maximum Sensitivity Substrate (Thermo Fisher Scientific, Waltham, MA, USA) was applied. Visualization of the blots was performed using the UVITEC Cambridge Imaging System (UVITEC, Cambridge, UK), and densitometric analysis of the western blot bands was conducted using NineAlliance software. Relative protein densities were calculated in relation to β-actin, used as a loading control.

## Cc1cc(C)c(S(=O)(=O)N(CC(=O)O)c2ccc(Nc3ccnc(N4CCCC4)n3)cc2)c(C)c1 [DDO-5936, reference compound]
[1]
  IC50: > 50 µM
[2]; MCF-7, at 50 μM, read-out: growth inhibition
  inhibition at 50 µM: 17%
[2]; MTS assay, 72 hours, mean ± SD
  IC50: > 50 µM
[3]
  Kd: 3.86 µM
[4]
  IC50: > 50 µM
[5]
  Kd: > 100 µM
[6]
  ERα level: downregulated
